Laboratory results from patent US20240025875A1, “A COMPOUND AS A THYROID HORMONE BETA RECEPTOR AGONIST AND USE THEREOF” (SUNSHINE LAKE PHARMA CO., LTD., priority 2020, published 2024).

What was measured:
TRα = target: T1, TRα (Homo sapiens, UniProt P10827); assay: LanthaScreen TR-FRET Thyroid Receptor alfa Coactivator Assay (in vitro binding activity); settings: TR alfa-LBD
T1 construct: 5 μL of 4×TR beta/alfa-LBD; purchased Invitrogen PV4687
Method: (§1) 2. Detection of the Binding Activity of the Compound of the Present Invention to TRα or TRβ In Vitro
(§2) Test Materials • LanthaScreen TR-FRET Thyroid Receptor beta Coactivator Assay kit was purchased from Invitrogen, Cat. No. PV4686; • LanthaScreen TR-FRET Thyroid Receptor alfa Coactivator Assay kit was purchased from Invitrogen, Cat. No. PV4687.
(§3) The method was experimented with LanthaScreen TR-FRET Thyroid Receptor beta/alfa Coactivator Assay kit. The test compound was dissolved in DMSO and diluted 3 times to a total of 10 concentrations, and then diluted with TR-FRET Coregulator Buffer C in the kit to form a solution containing 2% DMSO, 10 μL of the solution containing 2% DMSO was taken into a 384-well plate, then 5 μL of 4×TR beta/alfa-LBD, 5 μL of a mixture containing 0.4 μM fluorescein-SRC2-2 and 8 nM Tb anti-GST antibody were added into each well, mixed thoroughly, and incubated at room temperature for 1 h in the dark. After 1 h, BMG LABTECH's PHERAstar FSX microplate reader was used to read the fluorescence value (RFU) at […]. The TR-FRET ratio was calculated by dividing the emission signal at 520 nm by the emission signal at 495 nm. Graph Pad Prism 5 software was used to draw the curve and calculate the EC50 value. The in vitro binding activity test results of some of the compounds of the examples of the present invention are shown in Table 1 below.

TRβ = target: T2, TRβ (Homo sapiens, UniProt P10828); assay: LanthaScreen TR-FRET Thyroid Receptor beta Coactivator Assay (in vitro binding activity); settings: TR beta-LBD
T2 construct: 5 μL of 4×TR beta/alfa-LBD; purchased Invitrogen PV4686
T2 sequence (P10828 217-461 limits assumed): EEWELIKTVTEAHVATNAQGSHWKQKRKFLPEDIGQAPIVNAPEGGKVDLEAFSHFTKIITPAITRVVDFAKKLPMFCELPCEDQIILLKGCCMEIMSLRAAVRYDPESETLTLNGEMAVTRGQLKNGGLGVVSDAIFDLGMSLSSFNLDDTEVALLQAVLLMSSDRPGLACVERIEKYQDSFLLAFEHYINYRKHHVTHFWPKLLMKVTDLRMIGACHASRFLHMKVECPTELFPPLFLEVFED
Method: as §1, §2, §3

T1 sequence (P10827 163-410 isoform P10827-2 limits assumed, other chains not shown): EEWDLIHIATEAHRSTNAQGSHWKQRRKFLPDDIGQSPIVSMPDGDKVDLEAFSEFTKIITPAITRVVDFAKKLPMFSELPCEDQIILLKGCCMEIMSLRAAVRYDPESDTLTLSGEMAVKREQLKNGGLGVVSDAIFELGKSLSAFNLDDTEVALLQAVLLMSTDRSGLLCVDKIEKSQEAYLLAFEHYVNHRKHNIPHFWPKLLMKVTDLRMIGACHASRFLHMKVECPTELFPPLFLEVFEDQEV

Structure (SMILES)	EC50 (TRα) [µM]	EC50 (TRβ) [µM]
COCCN1CCc2cc(Oc3c(Cl)cc(-n4nc(C#N)c(=O)[nH]c4=O)cc3Cl)ccc2C1=O [Example 10, 2-(3,5-Dichloro-4-((2-(2-methoxyethyl)-1-oxo-1,2,3,4-tetrahydroisoquinolin-6-yl)oxy)phenyl)-3,5-dioxo-2,3,4,5-tetrahydro-1,2,4-triazine-6-carbonitrile]	0.206	0.049
CCOC(C)N1CCc2cc(Oc3c(Cl)cc(-n4nc(C#N)c(=O)[nH]c4=O)cc3Cl)ccc2C1=O (stereo not shown) [Example 16, 2-(3,5-dichloro-4-((2-(1-ethoxyethyl)-1-oxo-1,2,3,4-tetrahydroisoquinolin-yl)oxy)phenyl)-3,5-dioxo-2,3,4,5-tetrahydro-1,2,4-triazine-6-carbonitrile]	0.211	0.022
CCOCN1CCc2cc(Oc3c(Cl)cc(-n4nc(C#N)c(=O)[nH]c4=O)cc3Cl)ccc2C1=O [Example 4, 2-(3,5-dichloro-4-((2-(ethoxymethyl)-1-oxo-1,2,3,4-tetrahydroisoquinolin-6-yl)oxy)phenyl)-3,5-dioxo-2,3,4,5-tetrahydro-1,2,4-triazine-6-carbonitrile]	0.21	0.018
COc1cccc(CN2CCc3cc(Oc4c(Cl)cc(-n5ncc(=O)[nH]c5=O)cc4Cl)ccc3C2=O)c1 [Example 36, 2-(3,5-dichloro-4-((2-(3-methoxybenzyl)-1-oxo-1,2,3,4-tetrahydroisoquinolin-6-yl)oxy)phenyl)-1,2,4-triazine-3,5(2H,4H)-dione]	0.079	< 0.0046
O=C1c2ccc(Oc3c(Cl)cc(-n4ncc(=O)[nH]c4=O)cc3Cl)cc2CCN1Cc1cccc(F)c1 [Example 31, 2-(3,5-dichloro-4-((2-(3-fluorobenzyl)-1-oxo-1,2,3,4-tetrahydroisoquinolin-6-yl)oxy)phenyl)-1,2,4-triazine-3,5(2H,4H)-dione]	0.107	< 0.0046
N#Cc1nn(-c2cc(Cl)c(Oc3ccc4c(c3)CCN(Cc3ccc(F)cc3)C4=O)c(Cl)c2)c(=O)[nH]c1=O [Example 20d, 2-(3,5-dichloro-4-((2-(4-fluorobenzyl)-1-oxo-1,2,3,4-tetrahydroisoquinolin-6-yl)oxy)phenyl)-3,5-dioxo-2,3,4,5-tetrahydro-1,2,4-triazine-6-carbonitrile]	> 100	0.534
O=C1c2ccc(Oc3c(Cl)cc(-n4ncc(=O)[nH]c4=O)cc3Cl)cc2CCN1Cc1ccc(F)c(Cl)c1 [Example 35, 2-(3,5-dichloro-4-((2-(3-chloro-4-fluorobenzyl)-1-oxo-1,2,3,4-tetrahydroisoquinolin-6-yl)oxy)phenyl)-1,2,4-triazine-3,5(2H,4H)-dione]	0.092	< 0.0046
COCN1CCc2cc(Oc3c(Cl)cc(-n4nc(C#N)c(=O)[nH]c4=O)cc3Cl)ccc2C1=O [Example 3, 2-(3,5-dichloro-4-((2-(methoxymethyl)-1-oxo-1,2,3,4-tetrahydroisoquinolin-6-yl)oxy)phenyl)-3,5-dioxo-2,3,4,5-tetrahydro-1,2,4-triazine-6-carbonitrile]	0.29	0.026
O=C1c2ccc(Oc3c(Cl)cc(-n4ncc(=O)[nH]c4=O)cc3Cl)cc2CCN1c1nccs1 [Example 52, 2-(3,5-dichloro-4-((1-oxo-2-(thiazol-2-yl)-1,2,3,4-tetrahydroisoquinolin-6-yl)oxy)phenyl)-1,2,4-triazine-3,5(2H,4H)-dione]	0.23	0.016
O=C1NCCc2cc(Oc3c(Cl)cc(-n4ncc(=O)[nH]c4=O)cc3Cl)ccc21 [Example 17, 2-(3,5-Dichloro-4-((1-oxo-1,2,3,4-tetrahydroisoquinolin-6-yl)oxy)phenyl)-1,2,4-triazine-3,5(2H,4H)-dione]	0.311	0.034
N#Cc1nn(-c2cc(Cl)c(Oc3ccc4c(c3)CCCNC4=O)c(Cl)c2)c(=O)[nH]c1=O [Example 7, 2-(3,5-Dichloro-4-((1-oxo-2,3,4,5-tetrahydro-2H-benzo[c]azepin-7-yl)oxy)phenyl)-3,5-dioxo-2,3,4,5-tetrahydro-1,2,4-triazine-6-carbonitrile]	0.95	0.092
O=C1c2ccc(Oc3c(Cl)cc(-n4ncc(=O)[nH]c4=O)cc3Cl)cc2CCN1Cc1ccccc1 [Example 22, 2-(4-((2-benzyl-1-oxo-1,2,3,4-tetrahydroisoquinolin-6-yl)oxy)-3,5-dichlorophenyl)-1,2,4-triazine-3,5(2H,4H)-dione]	0.156	0.011
N#Cc1nn(-c2cc(Cl)c(Oc3ccc4c(c3)CCN(CC3CC3)C4=O)c(Cl)c2)c(=O)[nH]c1=O [Example 38, 2-(3,5-dichloro-4-((2-(cyclopropylmethyl)-1-oxo-1,2,3,4-tetrahydroisoquinolin-6-yl)oxy)phenyl)-3,5-dioxo-2,3,4,5-tetrahydro-1,2,4-triazine-6-carbonitrile]	< 0.046	< 0.0046
CCN1CCc2cc(Oc3c(Cl)cc(-n4nc(C#N)c(=O)[nH]c4=O)cc3Cl)ccc2C1=O [Example 5, 2-(3,5-dichloro-4-((2-ethyl-1-oxo-1,2,3,4-tetrahydroisoquinolin-6-yl)oxy)phenyl)-3,5-dioxo-2,3,4,5-tetrahydro-1,2,4-triazine-6-carbonitrile]	0.074	0.014
Cc1ccc(F)cc1CN1CCc2cc(Oc3c(Cl)cc(-n4ncc(=O)[nH]c4=O)cc3Cl)ccc2C1=O [Example 40, 2-(3,5-dichloro-4-((2-(5-fluoro-2-methylbenzyl)-1-oxo-1,2,3,4-tetrahydroisoquinolin-6-yl)oxy)phenyl)-1,2,4-triazine-3,5(2H,4H)-dione]	0.179	< 0.0046
N#Cc1nn(-c2cc(Cl)c(Oc3ccc4c(c3)CCN(C=O)C4=O)c(Cl)c2)c(=O)[nH]c1=O [Example 51, 2-(3,5-dichloro-4-((2-formyl-1-oxo-1,2,3,4-tetrahydroisoquinolin-6-yl)oxy)phenyl)-3,5-dioxo-2,3,4,5-tetrahydro-1,2,4-triazine-6-carbonitrile]	> 100	0.904
N#Cc1nn(-c2cc(Cl)c(Oc3ccc4c(c3)CCN(COCC(F)F)C4=O)c(Cl)c2)c(=O)[nH]c1=O [Example 15, 2-(3,5-dichloro-4-((1-oxo-2-((2,2-difluoroethoxy)methyl)-1,2,3,4-tetrahydroisoquinolin-6-yl)oxy)phenyl)-3,5-dioxo-2,3,4,5-tetrahydro-1,2,4-triazine-6-carbonitrile]	0.176	0.024

Next, values leading:

EC50 (TRα) [µM]	EC50 (TRβ) [µM]	Structure (SMILES)
2.62	0.213	N#Cc1nn(-c2cc(Cl)c(Oc3ccc4c(c3)CCN(c3ncccn3)C4=O)c(Cl)c2)c(=O)[nH]c1=O [Example 50f, 2-(3,5-dichloro-4-((1-oxo-2-(pyrimidin-2-yl)-1,2,3,4-tetrahydroisoquinolin-6-yl)oxy)phenyl)-3,5-dioxo-2,3,4,5-tetrahydro-1,2,4-triazine-6-carbonitrile]
> 100	0.11	N#Cc1nn(-c2cc(Cl)c(Oc3ccc4c(c3)CCN(Cc3ccccc3F)C4=O)c(Cl)c2)c(=O)[nH]c1=O [Example 33d, 2-(3,5-Dichloro-4-((2-(2-fluorobenzyl)-1-oxo-1,2,3,4-tetrahydroisoquinolin-6-yl)oxy)phenyl)-3,5-dioxo-2,3,4,5-tetrahydro-1,2,4-triazine-6-carbonitrile]
> 100	0.368	Cc1ccc(CN2CCc3cc(Oc4c(Cl)cc(-n5nc(C#N)c(=O)[nH]c5=O)cc4Cl)ccc3C2=O)cc1 [Example 21d, 2-(3,5-dichloro-4-((2-(4-methylbenzyl)-1-oxo-1,2,3,4-tetrahydroisoquinolin-6-yl)oxy)phenyl)-3,5-dioxo-2,3,4,5-tetrahydro-1,2,4-triazine-6-carbonitrile]
> 100	0.128	N#Cc1nn(-c2cc(Cl)c(Oc3ccc4c(c3)CCN(c3ccc(F)cc3)C4=O)c(Cl)c2)c(=O)[nH]c1=O [Example 28g]
> 100	0.035	Cc1ccc(F)cc1CN1CCc2cc(Oc3c(Cl)cc(-n4nc(C#N)c(=O)[nH]c4=O)cc3Cl)ccc2C1=O [Example 40d, 2-(3,5-dichloro-4-((2-(5-fluoro-2-methylbenzyl)-1-oxo-1,2,3,4-tetrahydroisoquinolin-6-yl)oxy)phenyl)-3,5-dioxo-2,3,4,5-tetrahydro-1,2,4-triazine-6-carbonitrile]
> 100	0.065	N#Cc1nn(-c2cc(Cl)c(Oc3ccc4c(c3)CCN(Cc3ccc(F)c(F)c3)C4=O)c(Cl)c2)c(=O)[nH]c1=O [Example 30d, 2-(3,5-dichloro-4-((2-(3,4-difluorobenzyl)-1-oxo-1,2,3,4-tetrahydroisoquinolin-6-yl)oxy)phenyl)-3,5-dioxo-2,3,4,5-tetrahydro-1,2,4-triazine-6-carbonitrile]
